The source of these data is PubChem BioAssay (NCI).

Structures are written as SMILES.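 96-well plates; 48 h exposure; 5 concentrations. Endpoints by linear interpolation between flanking doses. Not reached: highest tested concentration assigned. GI50 marks 50% less growth. The concentration for full growth arrest is given as TGI.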

Some test systems named below: COLO 205 colon; SK-MEL-28 melanoma; SNB-75 CNS; KM12 colon; HT29 colon; EKVX NSCLC; UO-31 renal; T-47D breast; U251 CNS; ACHN renal.
Common to all, as to assay: NCI-60 cell line screen, 48 h

Consider `CC([C@H]1CC=C2C3CCC4=C[C@@H](N(C)C)CC[C@]4(C)C3CC[C@@]21C)N(C)C` (stereo partly specified), for which the GI50 is 1.7 µM with COLO 205 colon; 1.74 µM with SK-MEL-28 melanoma; 3.3 µM with SNB-75 CNS; 2.77 µM with KM12 colon; 0.455 µM with HT29 colon; 1.99 µM in the assay with EKVX NSCLC. Also, the GI50 is 1.95 µM in the assay on UO-31 renal, 1.17 µM with T-47D breast, 3.21 µM with U251 CNS and 4.07 µM with ACHN renal. For the same compound, the TGI in the assay with COLO 205 colon is 3.37 µM; in the assay with SK-MEL-28 melanoma, 3.38 µM; in the assay with SNB-75 CNS, 10.6 µM; in the assay on KM12 colon, 11.9 µM; in the assay with HT29 colon, 2.11 µM; in the assay on EKVX NSCLC, 18.3 µM. Further, the TGI in the assay on UO-31 renal stood at 5.54 µM; in the assay on T-47D breast, 7.77 µM; in the assay with U251 CNS, 15.4 µM; with ACHN renal it was 14.7 µM.
Consider `CC1(C)OC(=O)C(C#N)=C1C[n+]1ccccc1`, for which the TGI with COLO 205 colon, in the assay with SK-MEL-28 melanoma, in the assay with SNB-75 CNS, in the assay with KM12 colon, in the assay with HT29 colon and with EKVX NSCLC was more than 10 µM in each case. For the same compound, the TGI with UO-31 renal, with T-47D breast, with U251 CNS and in the assay on ACHN renal was more than 10 µM throughout.
On to `ClCc1ccccc1Cn1cnc2c(Cl)ncnc21`, for which the GI50 was 3.89 µM with COLO 205 colon; 2.31 µM in the assay on SK-MEL-28 melanoma; 2.86 µM in the assay with SNB-75 CNS; 16.6 µM in the assay with KM12 colon; 3.56 µM in the assay on HT29 colon; 3.11 µM with EKVX NSCLC. Further, the GI50 in the assay on UO-31 renal is 2.65 µM; in the assay with T-47D breast, 17.9 µM; with U251 CNS, 2.65 µM; in the assay with ACHN renal, 2.7 µM. Also, the TGI in the assay with COLO 205 colon was more than 100 µM; in the assay on SK-MEL-28 melanoma, 5.48 µM; in the assay with SNB-75 CNS, 11.1 µM; in the assay on KM12 colon, 33.2 µM; in the assay with HT29 colon, more than 100 µM; in the assay with EKVX NSCLC it was 11 µM. Besides, the TGI in the assay with UO-31 renal worked out at 10.4 µM; in the assay on T-47D breast, 62 µM; with U251 CNS, 6.11 µM; in the assay on ACHN renal, 6.1 µM.
Consider `COc1ccc(/C=C2\SC(=Nc3ccccc3)NC2=O)cc1`, for which the GI50 is 4.68 µM in the assay on COLO 205 colon; 8.06 µM in the assay with SK-MEL-28 melanoma; 2.42 µM with SNB-75 CNS; 4.37 µM with KM12 colon; 4.38 µM in the assay on HT29 colon; 6.97 µM with UO-31 renal. In addition, the results for the GI50 in the assay with T-47D breast, in the assay on U251 CNS and with ACHN renal were 6.46 µM, 3.98 µM and 5.53 µM, respectively. Also, the TGI is 27.9 µM with COLO 205 colon; 44.8 µM in the assay with SK-MEL-28 melanoma; 10.9 µM in the assay on SNB-75 CNS; 22 µM in the assay on KM12 colon; 19.5 µM in the assay on HT29 colon; more than 100 µM in the assay on UO-31 renal. Also, the figures for the TGI in the assay on T-47D breast, in the assay on U251 CNS and in the assay with ACHN renal were more than 100 µM, 16.3 µM and 48.5 µM, respectively.
Turning to `COC1=CC(c2ccc[nH]2)=N/C1=C\c1[nH]c(C)c(CC(=O)OCc2ccccc2)c1C`, the GI50 in the assay with COLO 205 colon is 0.24 µM; in the assay on SNB-75 CNS, 0.217 µM; with KM12 colon, 0.272 µM; with HT29 colon it was 0.205 µM; with EKVX NSCLC, 0.351 µM; with UO-31 renal, 0.193 µM. The GI50 was 0.251 µM in the assay on T-47D breast, 0.319 µM in the assay with U251 CNS and 0.296 µM in the assay with ACHN renal. Further, the TGI in the assay with COLO 205 colon stood at 1.27 µM; in the assay on SNB-75 CNS it was 0.777 µM; in the assay on KM12 colon, 2.28 µM; in the assay on HT29 colon, 1.41 µM; with EKVX NSCLC, 2.06 µM; in the assay on UO-31 renal, 0.398 µM. Also, the TGI amounted to 1.08 µM in the assay with T-47D breast, 1.73 µM in the assay on U251 CNS and 0.886 µM in the assay with ACHN renal.
For the compound `Cc1c(Cl)cccc1NC(=O)/C=C/c1ccccc1`, the TGI in the assay on COLO 205 colon, with SK-MEL-28 melanoma, with SNB-75 CNS, in the assay with KM12 colon, with HT29 colon and with EKVX NSCLC was more than 100 µM each time. Besides, the TGI in the assay on T-47D breast, with U251 CNS and in the assay on ACHN renal was more than 100 µM in each case.
For the compound `COc1ccc(NC(=O)c2sc3nc(C)c(C(=O)/C=C/c4cccc(OC)c4)cc3c2N)cc1`, the GI50 was 2 µM with COLO 205 colon; 1.45 µM in the assay with SNB-75 CNS; 1.45 µM in the assay on KM12 colon; 1.02 µM with HT29 colon; 5.7 µM in the assay with EKVX NSCLC; 0.842 µM in the assay with UO-31 renal. The values for the GI50 in the assay on T-47D breast, with U251 CNS and in the assay with ACHN renal were 1.46 µM, 1.01 µM and 1.08 µM, respectively. For the same compound, the TGI with COLO 205 colon came out at 10.9 µM; in the assay on SNB-75 CNS it was 4.87 µM; with KM12 colon, 5.06 µM; in the assay with HT29 colon, 2.35 µM; in the assay with EKVX NSCLC it was 32.5 µM; in the assay on UO-31 renal, 1.76 µM. Moreover, the figures for the TGI with T-47D breast, with U251 CNS and in the assay with ACHN renal were more than 50 µM, 2.14 µM and 2.49 µM, respectively.
Turning to `Cn1nc(C(F)(F)F)c(-c2cc(C(F)(F)F)cc(C(F)(F)F)c2)c1-c1ccc(OCc2ccc(Cl)cc2)cc1O`, the GI50 with COLO 205 colon is 1.7 µM; in the assay on SK-MEL-28 melanoma it was 2.32 µM; with SNB-75 CNS, 2.17 µM; with KM12 colon it was 2.64 µM; in the assay on HT29 colon, 2.9 µM; in the assay with UO-31 renal, 1.89 µM. Also, the GI50 was 1.54 µM in the assay on T-47D breast, 2.38 µM in the assay on U251 CNS and 2.54 µM in the assay with ACHN renal. In addition, the TGI with COLO 205 colon was determined as 3.36 µM; with SK-MEL-28 melanoma, 10.7 µM; with SNB-75 CNS, 10.5 µM; in the assay on KM12 colon, 10.7 µM; with HT29 colon, 10.6 µM; in the assay with UO-31 renal it was 4.28 µM. The TGI in the assay on T-47D breast is 8.4 µM; in the assay with U251 CNS it was 12.1 µM; with ACHN renal, 10 µM.
